The values that follow come from PubChem BioAssay AID330 (DTP/NCI, 2004).

Where “and” joins values, the source holds several entries; their conditions need not be identical. Equal values may be shown once. Inconclusive results and toxic doses are left out.

The assay relates to P388 leukemia ip, CD2F1 mice, survival T/C. Description: NCI In Vivo Anticancer Drug Screen. Data for tumor model P388 Leukemia (intraperitoneal) in CD2F1 (CDF1) mice. As to conditions: endpoint: median survival time, higher = longer survival. The gist of the method: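 Mice carrying the transplanted tumor received test compound or vehicle. Survival was recorded in each group, and the value is the treated-group measurement divided by that of the vehicle-treated control group.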

Where [1] appears, read: dose: 50.0 mg/kg/injection, schedule: Q01DX009 (ip), vehicle: saline with Tween-80.
Where [2] appears, read: dose: 100.0 mg/kg/injection, schedule: Q01DX009 (ip), vehicle: saline with Tween-80.
The mark [3] stands for this setting: dose: 200.0 mg/kg/injection, schedule: Q01DX009 (ip), vehicle: saline with Tween-80.
Where [4] appears, read: dose: 50.0 mg/kg/injection, schedule: Q01DX005 (ip), vehicle: saline with Tween-80.
[5] abbreviates: dose: 100.0 mg/kg/injection, schedule: Q01DX005 (ip), vehicle: saline with Tween-80.
[6] abbreviates: dose: 200.0 mg/kg/injection, schedule: Q01DX005 (ip), vehicle: saline with Tween-80.

With `CCN(CC)C1=C(C)C(=O)[C@]2([Si](C)(C)C)[C@](OC)(c3ccc(C(F)(F)F)cc3)[C@]12[Si](C)(C)C`, the T/C reads like this: (dose: 100.0 mg/kg/injection, schedule: Q01DX001 (ip), vehicle: saline with Tween-80) 101 % of control; (dose: 200.0 mg/kg/injection, schedule: Q01DX001 (ip), vehicle: saline with Tween-80) 100 % of control; (dose: 400.0 mg/kg/injection, schedule: Q01DX001 (ip), vehicle: saline with Tween-80) 97 % of control.
Consider `COC(=O)CC1(C(=O)OC)C2=C(C(C(=O)C(F)F)CC2)N2CCCC21` (stereo not given), for which the T/C is 94 % of control (dose: 12.5 mg/kg/injection, schedule: Q01DX001 (ip), vehicle: Klucel (hydroxypropylcellulose) (HPC)); 97 % of control (dose: 25.0 mg/kg/injection, schedule: Q01DX001 (ip), vehicle: Klucel (hydroxypropylcellulose) (HPC)); 100 % of control (dose: 50.0 mg/kg/injection, schedule: Q01DX001 (ip), vehicle: Klucel (hydroxypropylcellulose) (HPC)).
In the case of `CC1(C)CC(COC(=O)c2c3ccccc3c3ccc4cccc5ccc2c3c54)CC(C)(C)N1O`, the T/C by setting is: under setting [1], 98 % of control; under setting [2], 106 % of control; under setting [3], 91 % of control.
As to `C=CCN=C([S-])Nc1cccc(C(=O)O)c1.[Au+].[Na+]`, the T/C is 106 % of control (dose: 60.0 mg/kg/injection, schedule: Q01DX005 (ip), vehicle: saline); 106 % of control (dose: 120.0 mg/kg/injection, schedule: Q01DX005 (ip), vehicle: saline); 108 % of control (dose: 240.0 mg/kg/injection, schedule: Q01DX005 (ip), vehicle: saline).
For `CCn1c2ccccc2c2cc(N=Nc3ccc4c(c3)c3ccccc3n4CC)ccc21`, the T/C reads like this: under setting [1], 105 % of control; under setting [2], 113 % of control.
As for `CC(C)C1=C(O)C2=C(C(=O)C1=O)C1(C)CCCC(C)(C)C1CC2O` (stereo not given), the T/C was 100 % of control (dose: 25.0 mg/kg/injection, schedule: Q01DX009 (ip), vehicle: saline with Tween-80); 104 % of control under setting [1]; 108 % of control under setting [3].
Consider `Oc1c(-c2ccccc2)nn(O)c1-c1ccccc1`, for which the T/C by setting is: (dose: 12.5 mg/kg/injection, schedule: Q01DX009 (ip), vehicle: Klucel (hydroxypropylcellulose) (HPC)) 106 % of control; (dose: 25.0 mg/kg/injection, schedule: Q01DX009 (ip), vehicle: Klucel (hydroxypropylcellulose) (HPC)) 100 % of control; (dose: 50.0 mg/kg/injection, schedule: Q01DX009 (ip), vehicle: Klucel (hydroxypropylcellulose) (HPC)) 95 % of control.
Consider `N#Cc1c(-c2ccccc2)c(-c2ccccc2)nn(CCO)c1=O`, for which the T/C runs as follows: (dose: 25.0 mg/kg/injection, schedule: Q04DX002 (ip), vehicle: distilled water + Tween-80) 94 % of control; (dose: 50.0 mg/kg/injection, schedule: Q04DX002 (ip), vehicle: distilled water + Tween-80) 103 % of control; (dose: 100.0 mg/kg/injection, schedule: Q04DX002 (ip), vehicle: distilled water + Tween-80) 108 % of control; (dose: 200.0 mg/kg/injection, schedule: Q04DX002 (ip), vehicle: distilled water + Tween-80) 110 % of control.
As for `Oc1ccc(C2Oc3ccccc3C=C2c2ccccc2)cc1` (stereo not given), the T/C is, setting by setting: under setting [4], 94 % of control; under setting [5], 89 % of control; under setting [6], 96 % of control.
For `CCCCCCN(CCCCCC)/C(N)=N/O`, the T/C (dose: 5.0 mg/kg/injection, schedule: Q01DX009 (ip), vehicle: saline with Tween-80) is 113 % of control; the T/C (dose: 10.0 mg/kg/injection, schedule: Q01DX009 (ip), vehicle: saline with Tween-80) is 105 % of control; the T/C (dose: 20.0 mg/kg/injection, schedule: Q01DX009 (ip), vehicle: saline with Tween-80) is 116 % of control.
For the compound `CC(NCCNC(C)C(=O)O)C(=O)O` (stereo not given), the T/C was 101 % of control (dose: 50.0 mg/kg/injection, schedule: Q01DX005 (ip), vehicle: saline); 103 % of control (dose: 100.0 mg/kg/injection, schedule: Q01DX005 (ip), vehicle: saline); 100 % of control (dose: 200.0 mg/kg/injection, schedule: Q01DX005 (ip), vehicle: saline).
Regarding `c1ccc2c3c(c4c(c2c1)CN(C1CCCCC1)CO4)OCN(C1CCCCC1)C3`, the T/C is, setting by setting: (dose: 6.25 mg/kg/injection, schedule: Q01DX005 (ip), vehicle: saline with Tween-80) 106 % of control; (dose: 12.5 mg/kg/injection, schedule: Q01DX005 (ip), vehicle: saline with Tween-80) 107 % of control and 112 % of control; under setting [4], 116 % of control.
In the case of `CC1C(c2ccccc2)NC(c2ccccc2)CC1(N)C#N` (stereo not given), the T/C (dose: 50.0 mg/kg/injection, schedule: Q01DX005 (ip), vehicle: Klucel (hydroxypropylcellulose) (HPC)) was 95 % of control; the T/C (dose: 100.0 mg/kg/injection, schedule: Q01DX005 (ip), vehicle: Klucel (hydroxypropylcellulose) (HPC)) was 95 % of control; the T/C (dose: 200.0 mg/kg/injection, schedule: Q01DX005 (ip), vehicle: Klucel (hydroxypropylcellulose) (HPC)) was 93 % of control.
Turning to `COc1ccc(/C(C#N)=C\c2ccc(N(C)C)cc2)cc1`, the T/C reads like this: (dose: 50.0 mg/kg/injection, schedule: Q04DX003 (ip), vehicle: Klucel (hydroxypropylcellulose) (HPC)) 108 % of control; (dose: 100.0 mg/kg/injection, schedule: Q04DX003 (ip), vehicle: Klucel (hydroxypropylcellulose) (HPC)) 105 % of control; (dose: 200.0 mg/kg/injection, schedule: Q04DX003 (ip), vehicle: Klucel (hydroxypropylcellulose) (HPC)) 106 % of control; (dose: 400.0 mg/kg/injection, schedule: Q04DX003 (ip), vehicle: Klucel (hydroxypropylcellulose) (HPC)) 105 % of control.
As to `COc1cc2cc3c4cc(OC)c(OC)cc4cc[n+]3c(C)c2cc1OC` (tested in a mixture with another compound), the T/C by setting is: (dose: 12.5 mg/kg/injection, schedule: Q01DX009 (ip), vehicle: water) 154 % of control; (dose: 16.0 mg/kg/injection, schedule: Q01DX009 (ip), vehicle: water) 106 % of control; (dose: 16.0 mg/kg/injection, schedule: Q01DX009 (sc), vehicle: water) 108 % of control; (dose: 25.0 mg/kg/injection, schedule: Q01DX009 (ip), vehicle: water) 158 % of control and 163 % of control and 172 % of control; (dose: 25.9 mg/kg/injection, schedule: Q04DX003 (ip), vehicle: water) 118 % of control; (dose: 32.0 mg/kg/injection, schedule: Q01DX009 (ip), vehicle: water) 105 % of control. The T/C is, setting by setting: (dose: 32.0 mg/kg/injection, schedule: Q01DX009 (sc), vehicle: water) 118 % of control; (dose: 43.2 mg/kg/injection, schedule: Q04DX003 (ip), vehicle: water) 123 % of control; (dose: 50.0 mg/kg/injection, schedule: Q01DX009 (ip), vehicle: saline) 191 % of control; (dose: 50.0 mg/kg/injection, schedule: Q01DX009 (ip), vehicle: water) 200 % of control; (dose: 50.0 mg/kg/injection, schedule: Q04DX003 (ip), vehicle: water) 152 % of control and 171 % of control; (dose: 64.0 mg/kg/injection, schedule: Q01DX009 (sc), vehicle: water) 123 % of control. For the same compound, the T/C is, setting by setting: (dose: 100.0 mg/kg/injection, schedule: Q01DX009 (ip), vehicle: saline) 90 % of control; (dose: 100.0 mg/kg/injection, schedule: Q01DX009 (ip), vehicle: water) 200 % of control; (dose: 100.0 mg/kg/injection, schedule: Q04DX003 (ip), vehicle: saline) 150 % of control; (dose: 100.0 mg/kg/injection, schedule: Q04DX003 (ip), vehicle: water) 158 % of control and 162 % of control and 187 % of control; (dose: 128.0 mg/kg/injection, schedule: Q01DX009 (ip), vehicle: water) 118 % of control; (dose: 128.0 mg/kg/injection, schedule: Q01DX009 (sc), vehicle: water) 115 % of control. In addition, the T/C by setting is: (dose: 200.0 mg/kg/injection, schedule: Q04DX003 (ip), vehicle: saline with Tween-80) 183 % of control; (dose: 200.0 mg/kg/injection, schedule: Q04DX003 (ip), vehicle: saline) 184 % of control; (dose: 256.0 mg/kg/injection, schedule: Q01DX009 (ip), vehicle: water) 105 % of control; (dose: 512.0 mg/kg/injection, schedule: Q01DX009 (ip), vehicle: water) 89 % of control.
Regarding `COc1cc(C=C2C(=O)C=CC2=O)ccc1O`, the T/C by setting is: (dose: 12.5 mg/kg/injection, schedule: Q04DX002 (ip), vehicle: saline) 92 % of control; (dose: 25.0 mg/kg/injection, schedule: Q04DX002 (ip), vehicle: saline) 96 % of control.
For `COCCc1nnnn1C`, the T/C was 102 % of control under setting [4], 98 % of control under setting [5] and 114 % of control under setting [6].
